How the values were obtained:
Format in all cases: in vivo
[1] = test system: Cyperus difformis; test: Test Example 3: herbicidal effect by foliage application, Wagner pot (symbol E); conditions: application herbicide amount 320 g/ha
Procedure, shortened: (§1)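 In a shallow-flooded alluvial soil system held at 25–30 °C, plants including rice grew for 14 days and were then sprayed over the foliage with emulsion diluted to a fixed herbicide amount. Visual rating followed at 3 weeks.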

[2] = test system: Lolium multiflorum Lam.; test: Test Example 5: herbicidal effect by foliage application, plastic box (symbol K); conditions: 320 g/ha, 3 weeks after application
Procedure, shortened: (§2)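 Seeds were sown in sterilized diluvial soil, covered with about 1.5 cm of soil and grown 14 days in a greenhouse at 25° C. to 30° C. An emulsifiable formulation diluted in water to a set rate was sprayed over foliage, and injury was scored 3 weeks later.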

[3] = test system: rice plant; test: Test Example 5: effect on crop by foliage application, plastic box (symbol b); conditions: 320 g/ha, 3 weeks after application
Procedure, shortened: (§3)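 Foliage-application test plants come from spot sowing in sterilized diluvial soil under a soil layer of about 1.5 cm, grown at 25° C. to 30° C. in a greenhouse.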

[4] = test system: Veronica persica; test: Test Example 5: herbicidal effect by foliage application, plastic box (symbol R); conditions: 320 g/ha, 3 weeks after application
Procedure, shortened: as §2

[5] = test system: rapeseed; test: Test Example 5: effect on crop by foliage application, plastic box (symbol g); conditions: 320 g/ha, 3 weeks after application
Procedure, shortened: as §3

[6] = test system: wheat; test: Test Example 5: effect on crop by foliage application, plastic box (symbol e); conditions: 320 g/ha, 3 weeks after application
Procedure, shortened: as §3

[7] = test system: Digitaria ciliaris; test: Test Example 5: herbicidal effect by foliage application, plastic box (symbol F); conditions: 320 g/ha, 3 weeks after application
Procedure, shortened: as §2

[8] = test system: Galium spurium; test: Test Example 5: herbicidal effect by foliage application, plastic box (symbol Q); conditions: 320 g/ha, 3 weeks after application
Procedure, shortened: as §2

[9] = test system: Abutilon theophrasti; test: Test Example 5: herbicidal effect by foliage application, plastic box (symbol M); conditions: 320 g/ha, 3 weeks after application
Procedure, shortened: as §2

[10] = test system: directly sowed rice plant; test: Test Example 3: effect on crop by foliage application, Wagner pot (symbol b); conditions: application herbicide amount 320 g/ha
Procedure, shortened: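 Alluvial soil in a 1/10000-are Wagner pot was flooded to a water depth of 0.1–0.5 cm. Echinochloa crus-galli var. crus-galli, Leptochloa chinensis, Cyperus difformis and rice were sown into it and grown in a greenhouse at 25–30 °C.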

[11] = test system: Chenopodium album; test: Test Example 5: herbicidal effect by foliage application, plastic box (symbol O); conditions: 320 g/ha, 3 weeks after application
Procedure, shortened: as §2

[12] = test system: Echinochloa crus-galli var. crus-galli; test: Test Example 3: herbicidal effect by foliage application, Wagner pot (symbol H); conditions: application herbicide amount 320 g/ha
Procedure, shortened: as §1

[13] = test system: Echinochloa crus-galli var. crus-galli; test: Test Example 5: herbicidal effect by foliage application, plastic box (symbol H); conditions: 320 g/ha, 3 weeks after application
Procedure, shortened: as §2

[14] = test system: transplanted rice plant; test: Test Example 1: effect on crop, application before weed generation in submerged conditions (symbol a); conditions: application herbicide amount 320 g/ha
Procedure, shortened: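 Alluvial soil pots flooded to 4 cm water, sown with Echinochloa oryzacola, Scirpus juncoides and Monochoria vaginalis, then transplanted with 2.5 leaf stage rice seedlings; pre-emergence application. Greenhouse 25° C. to 30° C.; scored 0–5 by herbicidal ratio 3 weeks after application.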

[15] = test system: corn; test: Test Example 5: effect on crop by foliage application, plastic box (symbol c); conditions: 320 g/ha, 3 weeks after application
Procedure, shortened: as §3

[16] = test system: Echinochloa oryzacola Vasing.; test: Test Example 2: herbicidal activity, application during weed generation in submerged conditions (symbol A); conditions: Table 23; application herbicide amount 320 g/ha; grade 0-5 by criteria of Test Example 1
Procedure, shortened: (§4)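 Compound was applied as a water-diluted emulsion into the standing water of flooded pots (4 cm) once co-sown weeds reached one to two leaves. Greenhouse temperature was 25° C. to 30° C., soil was alluvial, and each species was rated visually after 3 weeks.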

[17] = test system: soybean; test: Test Example 5: effect on crop by foliage application, plastic box (symbol d); conditions: 320 g/ha, 3 weeks after application
Procedure, shortened: as §3

[18] = test system: Avena fatua; test: Test Example 5: herbicidal effect by foliage application, plastic box (symbol I); conditions: 320 g/ha, 3 weeks after application
Procedure, shortened: as §2

[19] = test system: Setaria viridis; test: Test Example 5: herbicidal effect by foliage application, plastic box (symbol G); conditions: 320 g/ha, 3 weeks after application
Procedure, shortened: as §2

[20] = test system: Alopecurus myosuroides; test: Test Example 5: herbicidal effect by foliage application, plastic box (symbol J); conditions: 320 g/ha, 3 weeks after application
Procedure, shortened: as §2

[21] = test system: Amaranthus retroflexus; test: Test Example 5: herbicidal effect by foliage application, plastic box (symbol N); conditions: 320 g/ha, 3 weeks after application
Procedure, shortened: as §2

[22] = test system: Stellaria media; test: Test Example 5: herbicidal effect by foliage application, plastic box (symbol P); conditions: 320 g/ha, 3 weeks after application
Procedure, shortened: as §2

[23] = test system: Scirpus juncoides; test: Test Example 1: herbicidal activity, application before weed generation in submerged conditions (symbol B); conditions: application herbicide amount 320 g/ha
Procedure, shortened: (§5)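 Weeds are sown into submerged alluvial soil alongside transplanted 2.5-leaf rice, and the compound, as an emulsion diluted to a set rate, is applied onto the water before emergence. Rating on the 0–5 herbicidal-ratio scale follows 3 weeks of greenhouse growth at 25–30 °C.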

[24] = test system: Leptochloa chinensis; test: Test Example 3: herbicidal effect by foliage application, Wagner pot (symbol D); conditions: application herbicide amount 320 g/ha
Procedure, shortened: as §1

[25] = test system: Monochoria vaginalis; test: Test Example 2: herbicidal activity, application during weed generation in submerged conditions (symbol C); conditions: Table 23; application herbicide amount 320 g/ha; grade 0-5 by criteria of Test Example 1
Procedure, shortened: as §4

[26] = test system: Monochoria vaginalis; test: Test Example 1: herbicidal activity, application before weed generation in submerged conditions (symbol C); conditions: application herbicide amount 320 g/ha
Procedure, shortened: as §5

[27] = test system: Echinochloa oryzacola Vasing.; test: Test Example 1: herbicidal activity, application before weed generation in submerged conditions (symbol A); conditions: application herbicide amount 320 g/ha
Procedure, shortened: as §5

[28] = test system: Scirpus juncoides; test: Test Example 2: herbicidal activity, application during weed generation in submerged conditions (symbol B); conditions: Table 23; application herbicide amount 320 g/ha; grade 0-5 by criteria of Test Example 1
Procedure, shortened: as §4

[29] = test system: Apera spica-venti; test: Test Example 5: herbicidal effect by foliage application, plastic box (symbol L); conditions: 320 g/ha, 3 weeks after application
Procedure, shortened: as §2

[30] = test system: beet; test: Test Example 5: effect on crop by foliage application, plastic box (symbol f); conditions: 320 g/ha, 3 weeks after application
Procedure, shortened: as §3

Structure (SMILES) | herbicidal effect on E, grade 0-5 [1] | K: Lolium multiflorum Lam., herbicidal effect (criteria of Test Example 1) [2] | b: directly sowed rice plant, effect on crop (criteria of Test Example 1) [3] | R: Veronica persica, herbicidal effect (criteria of Test Example 1) [4] | g: rapeseed, effect on crop (criteria of Test Example 1) [5] | e: wheat, effect on crop (criteria of Test Example 1) [6] | F: Digitaria ciliaris, herbicidal effect (criteria of Test Example 1) [7] | Q: Galium spurium, herbicidal effect (criteria of Test Example 1) [8] | M: Abutilon theophrasti, herbicidal effect (criteria of Test Example 1) [9] | effect on crop b (directly sowed rice plant), grade 0-5 [10] | O: Chenopodium album, herbicidal effect (criteria of Test Example 1) [11] | herbicidal effect on H (Echinochloa crus-galli var. crus-galli), grade 0-5 [12] | H: Echinochloa crus-galli var. crus-galli, herbicidal effect (criteria of Test Example 1) [13] | Effect grade on crop, a: transplanted rice plant [14] | c: corn, effect on crop (criteria of Test Example 1) [15] | Herbicidal effect grade, A: Echinochloa oryzacola Vasing. [16] | d: soybean, effect on crop (criteria of Test Example 1) [17] | I: Avena fatua, herbicidal effect (criteria of Test Example 1) [18] | G: Setaria viridis, herbicidal effect (criteria of Test Example 1) [19] | J: Alopecurus myosuroides, herbicidal effect (criteria of Test Example 1) [20] | other results
CCCC=Cc1cc(C)c(C2=C(O)CC(CC(C)=NOC)C2=O)c(C)c1 (stereo not drawn) [6-071] | 0 (Herbicidal ratio of 5% or lower (almost no effect)) | 4 (Herbicidal ratio of 70% or higher and lower than 90%) | 1 (Herbicidal ratio of 5% or higher and lower than 20%) | 0 (Herbicidal ratio of 5% or lower (almost no effect)) | 0 (Herbicidal ratio of 5% or lower (almost no effect)) | 2 (Herbicidal ratio of 20% or higher and lower than 40%) | 0 (Herbicidal ratio of 5% or lower (almost no effect)) | 0 (Herbicidal ratio of 5% or lower (almost no effect)) | 0 (Herbicidal ratio of 5% or lower (almost no effect)) | 1 (Herbicidal ratio of 5% or higher and lower than 20%) | 0 (Herbicidal ratio of 5% or lower (almost no effect)) | 4 (Herbicidal ratio of 70% or higher and lower than 90%) | 0 (Herbicidal ratio of 5% or lower (almost no effect)) | 0 (Herbicidal ratio of 5% or lower (almost no effect)) | 0 (Herbicidal ratio of 5% or lower (almost no effect)) | 2 (Herbicidal ratio of 20% or higher and lower than 40%) | 0 (Herbicidal ratio of 5% or lower (almost no effect)) | 0 (Herbicidal ratio of 5% or lower (almost no effect)) | 0 (Herbicidal ratio of 5% or lower (almost no effect)) | 3 (Herbicidal ratio of 40% or higher and lower than 70%) | N: Amaranthus retroflexus, herbicidal effect (criteria of Test Example 1) [21]: 0 (Herbicidal ratio of 5% or lower (almost no effect)); P: Stellaria media, herbicidal effect (criteria of Test Example 1) [22]: 0 (Herbicidal ratio of 5% or lower (almost no effect)); Herbicidal effect grade, B: Scirpus juncoides [23]: 0 (Herbicidal ratio of 5% or lower (almost no effect)); herbicidal effect on D (Leptochloa chinensis), grade 0-5 [24]: 5 (Herbicidal ratio of 90% or more (almost completely withered)); Herbicidal effect grade, C: Monochoria vaginalis [25]: 0 (Herbicidal ratio of 5% or lower (almost no effect)); Herbicidal effect grade, C: Monochoria vaginalis [26]: 0 (Herbicidal ratio of 5% or lower (almost no effect)); Herbicidal effect grade, A: Echinochloa oryzacola Vasing. [27]: 4 (Herbicidal ratio of 70% or higher and lower than 90%); Herbicidal effect grade, B: Scirpus juncoides [28]: 0 (Herbicidal ratio of 5% or lower (almost no effect)); L: Apera spica-venti, herbicidal effect (criteria of Test Example 1) [29]: 2 (Herbicidal ratio of 20% or higher and lower than 40%); f: beet, effect on crop (criteria of Test Example 1) [30]: 0 (Herbicidal ratio of 5% or lower (almost no effect))
CON=C(C)CC1CC(O)=C(c2c(C)cc(C=Cc3ccccc3)cc2C)C1=O (stereo not drawn) [6-072] | 0 (Herbicidal ratio of 5% or lower (almost no effect)) | 2 (Herbicidal ratio of 20% or higher and lower than 40%) | 2 (Herbicidal ratio of 20% or higher and lower than 40%) | 0 (Herbicidal ratio of 5% or lower (almost no effect)) | 0 (Herbicidal ratio of 5% or lower (almost no effect)) | 0 (Herbicidal ratio of 5% or lower (almost no effect)) | 0 (Herbicidal ratio of 5% or lower (almost no effect)) | 0 (Herbicidal ratio of 5% or lower (almost no effect)) | 0 (Herbicidal ratio of 5% or lower (almost no effect)) | 0 (Herbicidal ratio of 5% or lower (almost no effect)) | 0 (Herbicidal ratio of 5% or lower (almost no effect)) | 5 (Herbicidal ratio of 90% or more (almost completely withered)) | 1 (Herbicidal ratio of 5% or higher and lower than 20%) | 0 (Herbicidal ratio of 5% or lower (almost no effect)) | 3 (Herbicidal ratio of 40% or higher and lower than 70%) | 1 (Herbicidal ratio of 5% or higher and lower than 20%) | 0 (Herbicidal ratio of 5% or lower (almost no effect)) | 3 (Herbicidal ratio of 40% or higher and lower than 70%) | 4 (Herbicidal ratio of 70% or higher and lower than 90%) | 0 (Herbicidal ratio of 5% or lower (almost no effect)) | N: Amaranthus retroflexus, herbicidal effect (criteria of Test Example 1) [21]: 0 (Herbicidal ratio of 5% or lower (almost no effect)); P: Stellaria media, herbicidal effect (criteria of Test Example 1) [22]: 0 (Herbicidal ratio of 5% or lower (almost no effect)); Herbicidal effect grade, B: Scirpus juncoides [23]: 0 (Herbicidal ratio of 5% or lower (almost no effect)); herbicidal effect on D (Leptochloa chinensis), grade 0-5 [24]: 5 (Herbicidal ratio of 90% or more (almost completely withered)); Herbicidal effect grade, C: Monochoria vaginalis [25]: 0 (Herbicidal ratio of 5% or lower (almost no effect)); Herbicidal effect grade, C: Monochoria vaginalis [26]: 0 (Herbicidal ratio of 5% or lower (almost no effect)); Herbicidal effect grade, A: Echinochloa oryzacola Vasing. [27]: 4 (Herbicidal ratio of 70% or higher and lower than 90%); Herbicidal effect grade, B: Scirpus juncoides [28]: 0 (Herbicidal ratio of 5% or lower (almost no effect)); L: Apera spica-venti, herbicidal effect (criteria of Test Example 1) [29]: 0 (Herbicidal ratio of 5% or lower (almost no effect)); f: beet, effect on crop (criteria of Test Example 1) [30]: 0 (Herbicidal ratio of 5% or lower (almost no effect))

From patent US11000033B2, “Ketone or oxime compound, and herbicide” (NISSAN CHEMICAL CORPORATION, priority 2014, dated 2021)
